By inhibition is commonly meant the share of the control response that was lost under treatment.

In the assay the test system is Abhydrolase domain-containing protein 11 (ABHD11), mouse. Description: cellular mouse ABHD11 activity inhibitors – cell-based, gel-based fluorescent ABPP, selectivity assay for LYPLA1 inhibitor project, late-stage follow-up (AID 504505). To be noted: mouse cells, ABHD11 labeling, at 0.03 µM, hits give high values.

As to `CCC1CCCCN1C(=O)n1ncc(C(O)(c2ccccc2)c2ccccc2)n1` (stereo unspecified), the inhibition is 100%.

The values above are taken from PubChem BioAssay AID504505 (The Scripps Research Institute Molecular Screening Center, 2011).
